One may read the IC50 as the concentration that inhibits the measured activity by half.

In the assay the target is T1, Human complement C1s enzyme (Homo sapiens, UniProt P09871).
T1 sequence (P09871 438-688 limits assumed): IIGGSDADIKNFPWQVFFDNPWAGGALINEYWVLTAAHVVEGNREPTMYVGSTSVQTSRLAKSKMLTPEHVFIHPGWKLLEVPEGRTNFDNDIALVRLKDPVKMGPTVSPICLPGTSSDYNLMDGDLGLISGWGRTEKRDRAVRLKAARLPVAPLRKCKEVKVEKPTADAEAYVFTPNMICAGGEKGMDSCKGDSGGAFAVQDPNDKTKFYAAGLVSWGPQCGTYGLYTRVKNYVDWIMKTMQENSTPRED
T1 sequence (P09871 16-437 partner limits assumed): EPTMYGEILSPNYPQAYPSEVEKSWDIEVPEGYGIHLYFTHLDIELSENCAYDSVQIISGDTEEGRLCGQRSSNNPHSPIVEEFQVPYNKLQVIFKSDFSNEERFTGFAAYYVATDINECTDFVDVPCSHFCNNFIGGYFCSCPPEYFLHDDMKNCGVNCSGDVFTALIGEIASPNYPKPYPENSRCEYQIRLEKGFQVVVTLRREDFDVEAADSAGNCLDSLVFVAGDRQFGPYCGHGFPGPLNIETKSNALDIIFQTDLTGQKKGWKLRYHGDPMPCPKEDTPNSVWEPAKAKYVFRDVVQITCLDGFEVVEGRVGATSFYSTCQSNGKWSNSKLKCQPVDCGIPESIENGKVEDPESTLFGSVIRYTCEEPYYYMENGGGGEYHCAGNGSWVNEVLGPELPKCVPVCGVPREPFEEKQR
As to the kind of experiment: Human C1s enzyme assay. It counts as biochemical. To be noted: human complement C1s enzyme 1.16 nM, substrate Z-L-Lys-SBzl 100 μM, 5 min preincubation; read-out: IC50 (Stars), C1s Inhibiting Activity. In short, it runs like this: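 Serum-purified human C1s (1.16 nM final) preincubated 5 min at room temperature with compound in 50 mM Tris, 1 M NaCl, pH 7.5. Z-L-Lys-SBzl and DTNB added at 100 μM each; A405 followed every 30 s for 30 min, and IC50 obtained by nonlinear regression of reaction rates.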

For `Cc1ccc(Oc2cccc(C(=O)NCC(=O)N3C[C@H](OC(F)F)C[C@H]3C(=O)N[C@H](C)c3cc4cnccc4[nH]3)c2)c(F)c1` [Compound 312, (2S,4R)-N-((R)-1-(1H-pyrrolo[3,2-c]pyridin-2-yl)ethyl)-4-(difluoromethoxy)-1-((3-(2-fluoro-4-methylphenoxy)benzoyl)glycyl) pyrrolidine-2-carboxamide], the IC50 was under 100 nM.
The figure for `O=C(NCC(=O)N1C[C@H](OC(F)F)C[C@H]1C(=O)NCc1cc2c(s1)CCNC2)c1ccc2c(c1)Oc1ccccc1S2` [Compound 313, (2S,4R)-4-(difluoromethoxy)-1-((phenoxathiine-3-carbonyl)glycyl)-N-((4,5,6,7-tetrahydrothieno[3,2-c]pyridin-2-yl)methyl)pyrrolidine-2-carboxamide] is under 100 nM; for `CC1(O)c2ccccc2-c2cc(C(=O)NCC(=O)N3C[C@H](OC(F)F)C[C@H]3C(=O)NCc3cc4cnccc4[nH]3)ccc21` (stereo partly drawn) [Compound 314, (2S,4R)-N-((1H-pyrrolo[3,2-c]pyridin-2-yl)methyl)-4-(difluoromethoxy)-1-((9-hydroxy-9-methyl-9H-fluorene-3-carbonyl)glycyl) pyrrolidine-2-carboxamide] it is under 100 nM.
Take `Cc1ccc(Oc2cccc(C(=O)NCC(=O)N3[C@H]4C[C@@]4(C)C[C@H]3C(=O)NCc3cc4cnccc4[nH]3)c2)c(F)c1` [Compound 315, (1S,3S,5S)-N-((1H-pyrrolo[3,2-c]pyridin-2-yl)methyl)-2-((3-(2-fluoro-4-methylphenoxy)benzoyl)glycyl)-5-methyl-2-azabicyclo[3.1.0]hexane-3-carboxamide]: the IC50 was under 100 nM.
The figure for `Cc1ccc(Oc2ccc(C(=O)NCC(=O)N3C[C@H](OC(F)F)C[C@H]3C(=O)NCc3cc4cnccc4[nH]3)cc2)c(F)c1` [Compound 316, (2S,4R)-N-((1H-pyrrolo[3,2-c]pyridin-2-yl)methyl)-4-(difluoromethoxy)-1-((4-(2-fluoro-4-methylphenoxy)benzoyl)glycyl) pyrrolidine-2-carboxamide] is under 100 nM.
Take `O=C(NCC(=O)N1C[C@H](OC(F)F)C[C@H]1C(=O)NCc1cc2cnccc2[nH]1)c1ccc(F)c(Oc2ccsc2)c1` [Compound 317, (2S,4R)-4-(difluoromethoxy)-1-[2-[[4-fluoro-3-(3-thienyloxy)benzoyl]amino]acetyl]-N-(1H-pyrrolo[3,2-c]pyridin-2-ylmethyl)pyrrolidine-2-carboxamide]: the 50% inhibitory concentration (IC50) is under 100 nM.
As for `Cc1ccc(Oc2cccc(C(=O)NCC(=O)N3C[C@@](F)(CF)C[C@H]3C(=O)NCc3cc4cnccc4[nH]3)c2)c(F)c1` [Compound 319, (2S,4R)-N-((1H-pyrrolo[3,2-c]pyridin-2-yl)methyl)-4-fluoro-1-((3-(2-fluoro-4-methylphenoxy)benzoyl)glycyl)-4-(fluoromethyl) pyrrolidine-2-carboxamide], the concentration for half-maximal inhibition (IC50) was under 100 nM.
On to `Cc1ccc(Oc2cccc(C(=O)NCC(=O)N3[C@H]4C[C@@]4(C)C[C@H]3C(=O)N[C@H](C)c3cc4cnccc4[nH]3)c2)c(F)c1` [Compound 320, (1S,3S,5S)-N-((R)-1-(1H-pyrrolo[3,2-c]pyridin-2-yl)ethyl)-2-((3-(2-fluoro-4-methylphenoxy)benzoyl)glycyl)-5-methyl-2-azabicyclo[3.1.0]hexane-3-carboxamide], for which the IC50 is under 100 nM.
The figure for `Cc1ccc(Oc2cccc(C(=O)NCC(=O)N3CC4(C[C@H]3C(=O)N[C@H](C)c3cc5cnccc5[nH]3)OCCO4)c2)c(F)c1` [Compound 321, (S)-N-((R)-1-(1H-pyrrolo[3,2-c]pyridin-2-yl)ethyl)-7-((3-(2-fluoro-4-methylphenoxy)benzoyl)glycyl)-1,4-dioxa-7-azaspiro[4.4]nonane-8-carboxamide] is under 100 nM.
Consider `Cc1ccc(Oc2ccc(F)c(C(=O)NCC(=O)N3C[C@H](OC(F)F)C[C@H]3C(=O)NCc3cc4cnccc4[nH]3)c2)c(F)c1` [Compound 322, (2S,4R)-N-((1H-pyrrolo[3,2-c]pyridin-2-yl)methyl)-4-(difluoromethoxy)-1-((2-fluoro-5-(2-fluoro-4-methylphenoxy)benzoyl)glycyl) pyrrolidine-2-carboxamide], for which the IC50 was under 100 nM.
For `Cc1ccc(Oc2ccnc(C(=O)NCC(=O)N3C[C@H](OC(F)F)C[C@H]3C(=O)NCc3cc4cnccc4[nH]3)c2)c(F)c1` [Compound 323, N-(2-((2S,4R)-2-(((1H-pyrrolo[3,2-c]pyridin-2-yl)methyl)carbamoyl)-4-(difluoromethoxy)pyrrolidin-1-yl)-2-oxoethyl)-4-(2-fluoro-4-methylphenoxy)picolinamide] the value was under 100 nM; for `Cc1ccc(Nc2cccc(C(=O)NCC(=O)N3C[C@H](OC(F)F)C[C@H]3C(=O)NCc3cc4cnccc4[nH]3)c2)c(F)c1` [Compound 324, (2S,4R)-N-((1H-pyrrolo[3,2-c]pyridin-2-yl)methyl)-4-(difluoromethoxy)-1-((3-((2-fluoro-4-methylphenyl)amino)benzoyl)glycyl) pyrrolidine-2-carboxamide], under 100 nM; for `Cc1ccc(COc2cccc(C(=O)NCC(=O)N3C[C@H](OC(F)F)C[C@H]3C(=O)NCc3cc4cnccc4[nH]3)c2)c(F)c1` [Compound 325, (2S,4R)-N-((1H-pyrrolo[3,2-c]pyridin-2-yl)methyl)-4-(difluoromethoxy)-1-((3-((2-fluoro-4-methylbenzyl)oxy)benzoyl)glycyl)pyrrolidine-2-carboxamide], under 100 nM.
Consider `Cc1ccc(Oc2cccc(C(=O)NCC(=O)N3C[C@H](OC(F)F)C[C@H]3C(=O)NCc3cc4cnccc4[nH]3)c2F)cc1` [Compound 327, (2S,4R)-N-((1H-pyrrolo[3,2-c]pyridin-2-yl)methyl)-4-(difluoromethoxy)-1-((2-fluoro-3-(p-tolyloxy)benzoyl)glycyl) pyrrolidine-2-carboxamide], for which the IC50 was under 100 nM.
As for `Cc1cc(Oc2ccc(C)cc2F)cc(C(=O)NCC(=O)N2C[C@H](OC(F)F)C[C@H]2C(=O)NCc2cc3cnccc3[nH]2)c1` [Compound 328, (2S,4R)-N-((1H-pyrrolo[3,2-c]pyridin-2-yl)methyl)-4-(difluoromethoxy)-1-((3-(2-fluoro-4-methylphenoxy)-5-methylbenzoyl)glycyl)pyrrolidine-2-carboxamide], the IC50 is under 100 nM.
Turning to `Cc1ccc2c(c1)oc1ccc(C(=O)NCC(=O)N3C[C@H](OC(F)F)C[C@H]3C(=O)NCc3cc4cnccc4[nH]3)cc12` [Compound 332, (2S,4R)-N-((1H-pyrrolo[3,2-c]pyridin-2-yl)methyl)-4-(difluoromethoxy)-1-((7-methyldibenzo[b,d]furan-2-carbonyl)glycyl)pyrrolidine-2-carboxamide], the IC50 is under 100 nM.
As to `Cc1ccc2oc3ccc(C(=O)NCC(=O)N4C[C@H](OC(F)F)C[C@H]4C(=O)NCc4cc5cnccc5[nH]4)cc3c2c1` [Compound 334, (2S,4R)-N-((1H-pyrrolo[3,2-c]pyridin-2-yl)methyl)-4-(difluoromethoxy)-1-((8-methyldibenzo[b,d]furan-2-carbonyl)glycyl)pyrrolidine-2-carboxamide], the IC50 was under 100 nM.
The figure for `Cc1cccc2c1oc1ccc(C(=O)NCC(=O)N3CCC[C@H]3C(=O)NCc3cc4cnccc4[nH]3)cc12` [Compound 336, (S)-N-((1H-pyrrolo[3,2-c]pyridin-2-yl)methyl)-1-((6-methyldibenzo[b,d]furan-2-carbonyl)glycyl)pyrrolidine-2-carboxamide] is under 100 nM.

The record behind these values is patent publication US20260062443A1 (ALEXION PHARMACEUTICALS, INC., priority 2022, published 2026).
